pEC50, pIC50: −log10 of the molar value. Entries after “also recorded” stand apart in the source; their conditions may differ.
Experiments:
[1] = system: human MRGPRX2 knock-in mice; assay: Cpd 48/80-induced itch (scratching) behavioral model; type: in vivo, mouse; conditions: 3 mg/kg PO, Cpd 48/80 intradermal 3 h post-dose, scratching over 30 min
Source text: The generation and initial characterization of human MRGPRX2 knock-in (KI) mice has been previously reported ([15]). All experimental protocols were approved by the Animal Care and Use Committee at the Johns Hopkins University School of Medicine and studies conducted according to GSK’s Policy on the Care, Welfare and Treatment of Animals. All mice used for this study were 2- to 4-month old males and females (20–30 g) and randomized on body weight and sex using three groups of 18 animals per group.
On the day of the experiment, animals were allowed to acclimatize to the test chamber for 10 min prior to injection. Mice received a single PO dose of Compound B (or vehicle) as a suspension in 1% methylcellulose at a dose level of 3 mg/kg (dose volume 10 mL/kg). Scratching behavior was monitored over 30 min following a single intra-dermal injection of 10 μL of Cpd 48/80 (10 μg/mL) or vehicle (saline) at 3 h post-dose of the antagonist. A bout of scratching was defined as a hindpaw directed continuous scratching movement at the injection site. The scratching behavior scorer was blinded to treatment. […]
Figure 6 Oral treatment with the potent and selective MRGPRX2 antagonist, Compound B (3 mg/kg), blocks Cpd 48/80–induced itch response using human MRGPRX2 knock-in mice. […] Average ± SD blood-free concentration of antagonist measured at end of “itch” observation period was 19 ± 16 nM Compound B.

MRGPRX2 = biological target: T1, MRGPRX2 (Homo sapiens, UniProt Q96LB1); assay: FcεR1/MRGPRX2 dual-stimulation β-hexosaminidase release in freshly isolated human skin mast cells; type: cell-based; parameters: human mast cells expressing endogenous MRGPRX2; endogenous in cells; […]; conditions: Substance P plus anti-IgE (10 μg/mL); n = 3 donors
T1 sequence (Q96LB1 1-330): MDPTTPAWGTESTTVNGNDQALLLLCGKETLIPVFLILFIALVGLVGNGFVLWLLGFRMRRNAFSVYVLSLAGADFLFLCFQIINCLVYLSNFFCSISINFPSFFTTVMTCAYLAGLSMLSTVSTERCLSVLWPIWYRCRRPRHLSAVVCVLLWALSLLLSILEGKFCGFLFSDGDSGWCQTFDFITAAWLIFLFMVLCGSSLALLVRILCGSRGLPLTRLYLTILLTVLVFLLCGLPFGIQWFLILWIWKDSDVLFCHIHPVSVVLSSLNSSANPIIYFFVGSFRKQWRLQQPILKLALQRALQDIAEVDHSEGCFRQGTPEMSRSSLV
Protocol: Tissue was processed, removing adipose and cutting into small segments. Epidermis was removed after incubation with dispase II (2 mg/mL; Sigma-Aldrich) [100 mL/50-cm^2 tissue, base buffer; Dulbecco’s Phosphate-buffered Saline (D-PBS) (Gibco, supplemented with Ca^2+/Mg^2+), amphotericin B (2.5 μg/mL), penicillin (100 units/mL)/streptomycin (100 μg/mL) (Sigma-Aldrich)] for 37°C for 2–4 h followed by 4°C overnight. The remaining dermis was homogenized into a uniform mass and digested with an enzyme cocktail [collagenase IV (10 mg/mL; Gibco), hyaluronidase I-S (5 mg/mL; Sigma), DNAse I (10 μg/ml; Roche)] in base buffer (supplemented with 10% FBS) in a shaking incubator at 37°C for 90 min. […]
For human primary skin mast cell degranulation experiments, both β-hexosaminidase and tryptase were measured. […] Plates were centrifuged, with supernatants collected and lysates generated [cell pellets lysed in 0.1% Tx100 (Sigma), in assay buffer], and then stored at −80°C for later quantification. β-Hexosaminidase activity assay was performed as already described. For tryptase quantification: The amount of total tryptase (α and β tryptase) was quantified using the ImmunoCap Tryptase Test ran on either a Phadia 100 or 250 Immunoassay Analyzer as per the manufacturer’s protocol. […]

[2] = biological target: T2, ß2-Adrenoreceptor (ADRB2) (Homo sapiens, UniProt P07550); assay: GPCR selectivity cellular assay; type: cell-based
T2 construct: expressed in transfected cells
T2 sequence (P07550 whole entry): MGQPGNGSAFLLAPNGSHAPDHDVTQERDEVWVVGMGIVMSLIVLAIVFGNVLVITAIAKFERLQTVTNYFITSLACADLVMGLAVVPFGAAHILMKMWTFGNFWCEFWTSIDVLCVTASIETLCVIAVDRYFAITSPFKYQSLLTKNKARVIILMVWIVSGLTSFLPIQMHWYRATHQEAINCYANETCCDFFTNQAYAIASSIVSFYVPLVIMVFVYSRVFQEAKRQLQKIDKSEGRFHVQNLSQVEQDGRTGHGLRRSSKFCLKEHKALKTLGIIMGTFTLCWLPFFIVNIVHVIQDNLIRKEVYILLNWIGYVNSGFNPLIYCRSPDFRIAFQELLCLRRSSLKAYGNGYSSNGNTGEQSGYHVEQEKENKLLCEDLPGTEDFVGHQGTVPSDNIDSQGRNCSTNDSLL
Protocol: tagonists, with little activity detected on other GPCRs. Antagonist and/or agonist activities of the two compounds were determined in cellular assays for 20 human G-protein coupled receptors (GPCR) beside MRGPRX2. Recombinant over-expression systems in mammalian cells were used for all assays listed in this table. […]
reported as ‘>’ the highest compound concentration allowed in that assay.
GPCR Target Name Gene symbol Mode of Activity Compound-A Compound-B […]
Agonist Activity (EC50 ) or Antagonist Activity (IC50 ), nM […]

C[C@@H](C(=O)Nc1cnc(Oc2ccc(F)cc2F)cn1)N1CCC(F)(F)[C@@H](c2cc[n+]([O-])cc2)C1 [Compound B]
Effect on Cpd 48/80-induced itch response [1]: significant blockade; also recorded: completely block | Effect on MRGPRX2-dependent augmentation of FcεR1/MRGPRX2 dual-stimulation β-hexosaminidase release (MRGPRX2): selectively inhibits | pEC50 ([2]; Agonism, read-out: Agonist Activity (EC50)): < 4.00 | pIC50 ([2]; Antagonism, read-out: Antagonist Activity (IC50)): < 4.00
